Here are results for 14 compounds from ChEMBL document CHEMBL1133121, “4-(1,3-Dimethoxyprop-2-ylamino)-2,7-dimethyl-8-(2, 4-dichlorophenyl)pyrazolo[1,5-a]-1,3,5-triazine: a potent, orally bioavailable CRF(1) receptor antagonist” (J Med Chem, 2000).

In data set [1] the target is T1, Corticotropin-releasing factor receptor 1 (Homo sapiens, UniProt P34998).
T1 sequence (P34998 whole entry): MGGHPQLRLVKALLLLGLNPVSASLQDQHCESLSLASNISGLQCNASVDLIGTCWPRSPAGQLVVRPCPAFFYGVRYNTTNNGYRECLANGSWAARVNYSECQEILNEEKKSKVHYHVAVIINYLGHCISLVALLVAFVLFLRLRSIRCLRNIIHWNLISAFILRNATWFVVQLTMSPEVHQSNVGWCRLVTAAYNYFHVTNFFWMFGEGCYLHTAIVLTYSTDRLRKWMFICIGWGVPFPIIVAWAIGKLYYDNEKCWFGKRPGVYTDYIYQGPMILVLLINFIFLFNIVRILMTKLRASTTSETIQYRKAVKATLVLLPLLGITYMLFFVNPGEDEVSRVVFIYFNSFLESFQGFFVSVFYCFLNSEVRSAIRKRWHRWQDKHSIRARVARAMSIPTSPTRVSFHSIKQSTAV
Put plainly: Displacement of [125I]-tyrosine-ovine-CRF from human Corticotropin releasing factor receptor 1. For orientation: Displacement assays read how much labelled ligand stays bound in the presence of the test substance.

Data set [2] is filed under the species Rattus norvegicus. As to the kind of experiment: %binding inhibition in rat ex vivo assay after one hour. The format is functional. The arrangement: concentration or dose not given beside the values.
For data set [3], the species on record is Rattus norvegicus. As to the kind of experiment: %binding inhibition in rat ex vivo assay after three hours. The format is functional. The arrangement: concentration or dose not given beside the values.
For data set [4], the species on record is Rattus norvegicus. As to the kind of experiment: % binding inhibition in rat ex vivo assay after one hour. The format is functional.
The species named for data set [5] is Rattus norvegicus. Put plainly: % binding inhibition in rat ex vivo assay after three hours. The format is functional.
Data set [6] in a line: Cmax(nM)value was determined in rats after po dose of 5 mg/kg. The format is ADME, organism-based. Set-up: dose 5 mg/kg, route oral. To be noted: rat, in vivo.
A short description of data set [7]: CL (L/h/kg) value was determined in dogs after intravenous dose of 1 mg/kg. The format is ADME, organism-based, Canis lupus familiaris. The arrangement: dose 1 mg/kg, route intravenous. To be noted: dog, in vivo, read-out: Vss (converted).
Data set [8] relates to Rattus norvegicus. Put plainly: (§1) Tested for situational anxiety in rats by measuring the latency exit from a chamber after po administration. Type of data set: functional.
A short description of data set [9]: Tmax(h)value was determined in rats after po dose of 5 mg/kg. Type of data set: ADME, organism-based. Set-up: dose 5 mg/kg, route oral. To be noted: rat, in vivo.
A short description of data set [10]: %bioavail value was determined in rats after po dose of 5 mg/kg. Type of data set: ADME, organism-based. The arrangement: dose 5 mg/kg, route oral. The following applies: rat, in vivo, read-out: Bioavailabiility.
Data set [11] in a line: C5min (nM) value was determined in rats after intravenous dose of 5 mg/kg. Type of data set: ADME, organism-based. Set-up: dose 5 mg/kg, route intravenous. To be noted: rat, in vivo, read-out: C5 min.
In data set [12] the test system is Rattus norvegicus. As to the kind of experiment: AUC(nM.h) value was determined in rats after po dose of 5 mg/kg. The arrangement: dose 5 mg/kg, route oral. The format is ADME, organism-based, Plasma. The following applies: in vivo.
Data set [13] is described as follows: C5min (nM) value was determined in dogs after intravenous dose of 1 mg/kg. Type of data set: ADME, organism-based, Canis lupus familiaris. The arrangement: dose 1 mg/kg, route intravenous. The following applies: dog, in vivo, read-out: C5 min.
In data set [14] the test system is Canis familiaris. Put plainly: AUCT(nM.h) value was determined in dogs after intravenous dose of 1 mg/kg. Type of data set: ADME, organism-based, Canis lupus familiaris, Plasma. The arrangement: dose 1 mg/kg, route intravenous. The following applies: dog, in vivo.
Data set [15] is described as follows: Vss(L/kg) value was determined in rats after intravenous dose of 5 mg/kg. The format is ADME, organism-based. The arrangement: dose 5 mg/kg, route intravenous. To be noted: rat, in vivo, read-out: Vss.
Data set [16] has as its system Canis familiaris. As to the kind of experiment: AUCT(nM.h) value was determined in dogs after po dose of 1 mg/kg. Type of data set: ADME, organism-based, Canis lupus familiaris, Plasma. Set-up: dose 1 mg/kg, route oral. The following applies: dog, in vivo.
Data set [17] is described as follows: Vss(L/kg)value was determined in dogs after intravenous dose of 1 mg/kg. The format is ADME, organism-based, Canis lupus familiaris. Set-up: dose 1 mg/kg, route intravenous. The following applies: dog, in vivo, read-out: Vss.
A short description of data set [18]: t1/2 (h) value of was determined in rats after intravenous dose of 5 mg/kg. The format is ADME, organism-based. The arrangement: dose 5 mg/kg, route intravenous. To be noted: rat, in vivo.
Data set [19] relates to Rattus norvegicus. Described as §1. Type of data set: functional. The source holds these as a separate data set.
Data set [20] deals with Rattus norvegicus. The data set is described as §1. Type of data set: functional. The source holds these as a separate data set.
The nature of data set [21]: t1/2 (h) value was determined in dogs after po dose of 1 mg/kg. Type of data set: ADME, organism-based, Canis lupus familiaris. Set-up: dose 1 mg/kg, route oral. To be noted: dog, in vivo.
Data set [22] in a line: % bioavailability value was determined in dogs after po dose of 1 mg/kg. The format is ADME, organism-based, Canis lupus familiaris. To be noted: dog, in vivo, read-out: Bioavailabiility.
Data set [23] has as its system Rattus norvegicus. Put plainly: CL(L/h/kg) value was determined in rats after intravenous dose of 5 mg/kg. To be noted: in vivo. The arrangement: dose 5 mg/kg, route intravenous. The format is ADME, organism-based.
The nature of data set [24]: t1/2 (h) value was determined in rats after po dose of 5 mg/kg. The following applies: rat, in vivo. Type of data set: ADME, organism-based. Set-up: dose 5 mg/kg, route oral.
The subject of data set [25] is Rattus norvegicus. The data set is described as §1. Type of data set: functional. This is another data set of the same source.
In data set [26] the test system is Canis familiaris. As to the kind of experiment: AUC(nM.h) value was determined in dogs after intravenous dose of 1 mg/kg. Type of data set: ADME, organism-based, Canis lupus familiaris, Plasma. The arrangement: dose 1 mg/kg, route intravenous. The following applies: dog, in vivo.
A short description of data set [27]: t1/2 (h) value was determined in dogs after intravenous dose of 1 mg/kg. The format is ADME, organism-based, Canis lupus familiaris. The arrangement: dose 1 mg/kg, route intravenous. The following applies: dog, in vivo.
Data set [28] is described as follows: Tmax(h)value was determined in dogs after po dose of 1 mg/kg. Type of data set: ADME, organism-based, Canis lupus familiaris. The following applies: dog, in vivo. The arrangement: dose 1 mg/kg, route oral.
Data set [29] concerns Canis familiaris. As to the kind of experiment: AUC(nM.h) value was determined in dogs after po dose of 1 mg/kg. Set-up: dose 1 mg/kg, route oral. The following applies: dog, in vivo. Type of data set: ADME, organism-based, Canis lupus familiaris, Plasma.
The subject of data set [30] is Rattus norvegicus. Put plainly: AUCT(nM.h) value was determined in rats after po dose of 5 mg/kg. The following applies: in vivo. Set-up: dose 5 mg/kg, route oral. Type of data set: ADME, organism-based, Plasma.
For data set [31], the system named is Rattus norvegicus. As to the kind of experiment: Tested for situational anxiety in rats by measuring the latency exit from a chamber after po comparison with the activity values. The format is functional.

Molecules are shown by their SMILES. “And” between values parts separate entries of the source, which are not always exact repeats. Equal values may be shown once.

In the case of `CCCC(CCC)Nc1nc(C)nc2c(-c3ccc(Cl)cc3Cl)c(C)nn12`, in [1], the affinity, expressed as Ki, was 1.6 nM. The Binding inhibition in the data set filed under Rattus norvegicus [2] was 63.9%; in the data set filed under Rattus norvegicus [3] it was 74.8%.
In data set [1], `CCC(COC)Nc1nc(C)nc2c(-c3ccc(Cl)cc3Cl)c(C)nn12` (centres undefined) showed a Ki of 1.9 nM.
Regarding `CCCC(CC)Nc1nc(C)nc2c(-c3ccc(Cl)cc3Cl)c(C)nn12` (centres undefined), in [1], the Ki is 1.2 nM. Also, the Binding inhibition in the data set filed under Rattus norvegicus [2] is on record as 46.6%; in the data set listed under Rattus norvegicus [3] it was 67%.
The corresponding values for `CCCN(CC1CC1)c1nc(C)nc2c(-c3ccc(Cl)cc3Cl)c(C)nn12` are 0.7 nM, 73.3% and 95.4%.
In data set [1], `COCCN(CCOC)c1nc(C)nc2c(-c3ccc(Cl)cc3Cl)c(C)nn12` showed a Ki of 1.8 nM. Further, the values for the Binding inhibition in the data set filed under Rattus norvegicus [2] and in the data set listed under Rattus norvegicus [3] were 85.4% and 92.9%, respectively.
`CCCCC(CC)Nc1nc(C)nc2c(-c3ccc(Cl)cc3Cl)c(C)nn12` (centres undefined): the affinity in [1] corresponds to a Ki of 1.6 nM.
Still for that read-out and setting: with `CCOCC(COCC)Nc1nc(C)nc2c(-c3ccc(Cl)cc3Cl)c(C)nn12` the figure was 6.2 nM; with `Cc1nc(N(C)c2ccccc2)n2nc(C)c(-c3ccc(Cl)cc3Cl)c2n1`, 44.5 nM.
Turning to `CCC(CC)Nc1nc(C)nc2c(-c3ccc(Cl)cc3Cl)c(C)nn12`, the Ki in data set [1] worked out at 1.1 nM. The figures for the Binding inhibition in the data set listed under Rattus norvegicus [2] and in the data set filed under Rattus norvegicus [3] were 65.9% and 71.8%, respectively.
For the compound `CCCCN(CC)c1nc(C)nc2c(-c3ccc(Cl)cc3Cl)c(C)nn12`, in data set [1], the inhibitory constant (Ki) amounted to 0.4 nM. In addition, the Binding inhibition in the data set listed under Rattus norvegicus [4] came out at 73.2%; in the data set filed under Rattus norvegicus [5], 82.9%.
In [1], `CCCN(CCC)c1nc(C)nc2c(-c3ccc(Cl)cc3Cl)c(C)nn12` returned a Ki of 0.6 nM.
With `COCC(COC)Nc1nc(C)nc2c(-c3ccc(Cl)cc3Cl)c(C)nn12`, in data set [6], the Cmax is 317 nM. For the same compound, the clearance in [7] was 15.8 mL/min/kg. For the same compound, the Latency to exit in the data set with Rattus norvegicus [8] is below 408; in the data set with Rattus norvegicus [19], <426 and <286; with Rattus norvegicus [20], 680; in the data set on Rattus norvegicus [25], below 482. For the same compound, the figures for the Tmax in [9] and in data set [28] were 0.44 h and 0.88 h, respectively. The values for the bioavailability in data set [10] and in [22] were 36.7% and 49.7%, respectively. In addition, the Ki in [1] was 1.7 nM. In addition, the results for the concentration at 5 min in data set [11] and in data set [13] were 2880 nM and 1370 nM, respectively. Further, the figures for the AUC in the data set with Rattus norvegicus [12], with Canis familiaris [26] and in the data set with Canis familiaris [29] were 2.26 µM·h, 2.69 µM·h and 555 Nm.H, respectively. In addition, the AUC T with Canis familiaris [14] stood at 2.27 µM·h; in the data set on Canis familiaris [16], 0.469 µM·h; in the data set on Rattus norvegicus [30], 1.86 µM·h. Also, the Vd turned out to be 21.5 L/kg in data set [15] and 27.1 L/kg in data set [17]. The Binding inhibition was determined as 78.2% in the data set listed under Rattus norvegicus [2] and 81.3% in the data set filed under Rattus norvegicus [3]. The half-life in [18] was 12.3 h; in data set [21], 33.4 h; in data set [24] it was 16.5 h; in data set [27] it was 34.5 h. Further, the CL in the data set with Rattus norvegicus [23] was found to be 2 kg⁻¹ h⁻¹.
For `CCCCN(CC)c1nc(C)nc2c1c(C)cn2-c1c(C)cc(C)cc1C.Cl`, the Binding inhibition in the data set filed under Rattus norvegicus [2] and in the data set filed under Rattus norvegicus [3] was below 10% in each case.
For `CNC1=Nc2ccc(Cl)cc2C(c2ccccc2)=[N+]([O-])C1` [CHLORDIAZEPOXIDE], in the data set with Rattus norvegicus [31], the Latency to exit was below 216.

As a reminder, the Ki is a dissociation constant, usually derived from enzyme kinetics or from competition with a known ligand. Broadly, the Cmax is the maximum level reached in the sampled fluid or tissue. The term Tmax denotes the time from dosing to the highest level. Usually half-life stands for the time needed for the level to fall by half in the phase considered.
